Test results taken from publication PMC7044277 (Nature Communications, 2020).
“And” between values parts separate entries of the source, which are not always exact repeats. Equal values may be shown once.

Experiments:
[1] = target: T1, 5HT4 (Homo sapiens, UniProt Q13639); experiment: β-arrestin2 recruitment (Tango); type: cell-based; conditions: Fig_S10n, Log[Drug] -12
T1 construct: expressed in transfected cells; host or cells: HTLA cells expressing TEV-fused β-arrestin2

[2] = target: DRD2 F1103.28A (Homo sapiens, UniProt P14416, F110A); type: binding; parameters: expressed in transfected cells; host or cells: HEK293T (ATCC CRL-11268); conditions: DRD2 F1103.28A; read-out: Ki
Chain of DRD2 F1103.28A (P14416 whole entry F110A): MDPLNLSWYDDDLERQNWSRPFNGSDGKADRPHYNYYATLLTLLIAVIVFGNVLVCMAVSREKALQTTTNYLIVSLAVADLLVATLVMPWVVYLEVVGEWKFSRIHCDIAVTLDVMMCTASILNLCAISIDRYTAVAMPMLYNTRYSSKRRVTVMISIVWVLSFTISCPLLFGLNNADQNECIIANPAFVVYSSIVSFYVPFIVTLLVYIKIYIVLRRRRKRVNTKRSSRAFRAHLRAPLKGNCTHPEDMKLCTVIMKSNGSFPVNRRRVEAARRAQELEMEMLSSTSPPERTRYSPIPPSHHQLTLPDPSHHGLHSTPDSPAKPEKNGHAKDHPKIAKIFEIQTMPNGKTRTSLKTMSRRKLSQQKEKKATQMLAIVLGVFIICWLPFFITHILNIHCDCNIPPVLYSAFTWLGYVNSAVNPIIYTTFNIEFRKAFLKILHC

[3] = system: serotonin receptor (subtype not given; reference agonist serotonin); experiment: β-arrestin2 recruitment (Tango), agonist activity, source data Fig_S10m; type: cell-based, human; conditions: drug alone
[4] = target: DRD2 (D2 long receptor) (Homo sapiens, UniProt P14416); experiment: β-arrestin2 recruitment (Tango), HTLA cells; type: cell-based; conditions: for response, concentration-response data point (replicates): Fig_S10a, drug alone
Chain of DRD2 (D2 long receptor) (P14416 whole entry): as the sequence (P14416 whole entry F110A) above, with A110F counted along it

T1 sequence (Q13639 whole entry, the tested form may be a part): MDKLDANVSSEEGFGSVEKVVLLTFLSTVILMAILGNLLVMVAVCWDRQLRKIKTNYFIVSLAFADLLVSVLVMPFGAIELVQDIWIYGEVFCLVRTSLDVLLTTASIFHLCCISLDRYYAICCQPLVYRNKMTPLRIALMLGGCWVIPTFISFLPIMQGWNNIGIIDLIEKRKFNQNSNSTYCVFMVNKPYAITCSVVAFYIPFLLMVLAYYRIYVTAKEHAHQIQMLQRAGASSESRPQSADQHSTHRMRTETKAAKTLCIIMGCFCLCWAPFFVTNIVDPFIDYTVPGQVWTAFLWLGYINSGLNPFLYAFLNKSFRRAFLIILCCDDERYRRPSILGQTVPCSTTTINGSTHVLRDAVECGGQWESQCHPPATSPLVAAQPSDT

CCOc1cccc2cc([C@H](C)NCC3(O)CCCCC3)oc12 [O4SE6]
β-arrestin2 recruitment response in presence of serotonin (replicate values) ([1]; +10μM serotonin): 88.7057 and 105.09 and 99.6448 and 69.9375 and 73.7219 and 66.8948 and 92.7613 and 90.5301 and 90.978
β-arrestin2 recruitment response (dose-response source data, replicate values) ([1]; drug alone): 1.557 and 0.8835 and 0.5619 and 0.6979 and 1.198 and 1.239 and 0.08246 and 0.08488 and 0.4382
Ki [2]: 0.52 µM
response, Fig_S10m, replicate values ([3]; Log[Drug] -10): -3 and -0.8547 and -1.711 and 1.274 and 0.6519 and 0.6372 and 3.446 and 2.684 and 1.5611
response, Fig_S10m, replicate values ([3]; Log[Drug] -10.52): -1.057 and 0.5825 and 1.112 and 0.2883 and -0.05325 and 2.637 and -1.4637 and 2.006 and 9.099
response, Fig_S10m, replicate values ([3]; Log[Drug] -11): -3.4971 and -1.766 and 0.3518 and 1.196 and 0.9733 and 1.78 and -2.611 and -3.973 and 1.645
response, Fig_S10m, replicate values ([3]; Log[Drug] -11.52): -2.165 and -1.698 and -2.094 and 0.786 and 2.079 and 0.9742 and -3.099 and -0.8266 and -0.3396
response, Fig_S10m, replicate values ([3]; Log[Drug] -12): 0.1375 and -0.9459 and 1.244 and -0.4049 and 1.325 and 0.3957 and -1.831 and -2.73 and 1.919
β-arrestin2 recruitment agonist activity ([4]; DRD2, Tango): selective DRD2 agonist
EC50 ([4]; DRD2, β-arrestin2 recruitment (Tango), read-out: EC50 ± SEM): 1.05 µM
response, concentration-response data point (replicates) ([4]; Log[Drug] -5): 73.5777 and 57.7969 and 60.7943 and 65.7822 and 71.9755 and 71.4753 and 62.0106
response, concentration-response data point (replicates) ([4]; Log[Drug] -5.52): 50.6787 and 47.7474 and 41.401 and 56.0167 and 52.8546 and 51.367 and 55.6817
response, concentration-response data point (replicates) ([4]; Log[Drug] -6): 39.3966 and 41.1099 and 37.2084 and 41.7585 and 38.5021 and 38.079 and 42.2149
response, concentration-response data point (replicates) ([4]; Log[Drug] -6.52): 17.548 and 17.9218 and 22.2395 and 30.2893 and 22.7451 and 19.4102 and 21.7916
response, concentration-response data point (replicates) ([4]; Log[Drug] -7): 9.564 and 7.739 and 7.708 and 7.415 and 7.649 and 7.113 and 9.501
response, concentration-response data point (replicates) ([4]; Log[Drug] -7.52): 5.75 and 5.841 and 5.282 and 5.619 and 6.782 and 5.749 and 5.8801
response, concentration-response data point (replicates) ([4]; Log[Drug] -8): 5.434 and 5.45 and 5.389 and 5.042 and 5.329 and 5.148 and 5.345
response, concentration-response data point (replicates) ([4]; Log[Drug] -8.52): 5.277 and 5.01 and 4.9419 and 4.98 and 5.0858 and 5.308 and 5.178
response, concentration-response data point (replicates) ([4]; Log[Drug] -9): 5.4097 and 5.385 and 5.128 and 4.863 and 4.947 and 4.805 and 4.8829
response, concentration-response data point (replicates) ([4]; Log[Drug] -9.52): 5.139 and 4.887
response, concentration-response data point (replicates) ([4]; Log[Drug] -10): 5.431 and 4.786 and 4.659 and 4.856 and 4.756 and 4.79 and 4.8682
response, concentration-response data point (replicates) ([4]; Log[Drug] -10.52): 5.022 and 4.798 and 4.776 and 4.763 and 4.86 and 4.945 and 4.841
response, concentration-response data point (replicates) ([4]; Log[Drug] -11): 4.915 and 4.765 and 4.615 and 4.7302 and 4.774 and 4.749 and 4.971
response, concentration-response data point (replicates) ([4]; Log[Drug] -11.52): 4.946 and 4.662 and 4.627 and 4.695 and 4.751 and 4.656 and 4.732
response, concentration-response data point (replicates) ([4]; Log[Drug] -12): 4.887 and 4.582 and 4.674 and 4.754 and 4.726 and 4.751 and 4.811
Emax ([4]; HTLA, read-out: Emax relative to quinpirole response, DRD2, Tango): 71.3%
β-arrestin2 recruitment response at DRD2 (source data, replicate values) ([4]; Log[Drug] -6): 82.8973
β-arrestin2 recruitment response at DRD2 (source data, replicate values) ([4]; Log[Drug] -6.52): 72.8482 and 85.473 and 74.6038 and 82.6009 and 103.942 and 82.378 and 70.1593 and 68.4699 and 74.397
β-arrestin2 recruitment response at DRD2 (source data, replicate values) ([4]; Log[Drug] -7): 71.4846 and 69.3009 and 62.1089 and 68.8602 and 55.9009 and 59.7861 and 54.6819 and 54.8285 and 54.3284
β-arrestin2 recruitment response at DRD2 (source data, replicate values) ([4]; Log[Drug] -7.52): 50.7715 and 50.9759 and 58.0792 and 57.6214 and 43.2407 and 45.9376 and 55.9749 and 62.7315 and 56.5853
β-arrestin2 recruitment response at DRD2 (source data, replicate values) ([4]; Log[Drug] -8): 39.7841 and 36.3747 and 29.4664 and 31.1292 and 29.8397 and 30.2988 and 27.2382 and 26.622 and 26.0732
β-arrestin2 recruitment response at DRD2 (source data, replicate values) ([4]; Log[Drug] -8.52): 13.2168 and 14.3867 and 13.161 and 13.9303 and 10.9069 and 10.856 and 10.5462 and 11.4912 and 11.2421
β-arrestin2 recruitment response at DRD2 (source data, replicate values) ([4]; Log[Drug] -9): 7.123 and 6.617 and 6.837 and 5.043 and 6.064 and 6.895 and 5.588 and 6.122 and 5.826
β-arrestin2 recruitment response at DRD2 (source data, replicate values) ([4]; Log[Drug] -9.52): 5.908 and 5.15 and 5.772 and 5.0023 and 4.872 and 4.927 and 5.017 and 5.057 and 5.0924
β-arrestin2 recruitment response at DRD2 (source data, replicate values) ([4]; Log[Drug] -10): 5.347 and 5.121 and 5.289 and 4.982 and 4.774 and 4.763 and 4.918 and 4.901 and 4.8503
β-arrestin2 recruitment response at DRD2 (source data, replicate values) ([4]; Log[Drug] -10.52): 5.092 and 5.033 and 5.133 and 4.671 and 4.683 and 4.718 and 4.817 and 4.868 and 4.747
β-arrestin2 recruitment response at DRD2 (source data, replicate values) ([4]; Log[Drug] -11): 5.0524 and 5.024 and 4.843 and 4.786 and 4.868 and 4.603 and 4.715 and 4.851 and 5.108
β-arrestin2 recruitment response at DRD2 (source data, replicate values) ([4]; Log[Drug] -11.52): 4.975 and 5.004 and 4.993 and 4.845 and 4.81 and 4.615 and 4.945 and 4.7318 and 4.6555
